Measured values published in ChEMBL document CHEMBL1201862, “PubChem BioAssay data set” (2004).
Activity calls are given as the source filed them.

Tests used:
[1] = biological target: T1, Aryl hydrocarbon receptor (Homo sapiens, UniProt P35869); assay: Luminescence-based cell-based high throughput dose response assay for activators of the Aryl Hydrocarbon Receptor (AHR). [Related pubchem assays: 2796 (Primary screen (AHR activators in singlicate)), 2845 (Confirmation screen (AHR activators in triplicate)), 434939 (Counterscreen (PXR activators in triplicate)), 2804 (Summary (AHR activators))]; type: ADME
T1 sequence (P35869 whole entry): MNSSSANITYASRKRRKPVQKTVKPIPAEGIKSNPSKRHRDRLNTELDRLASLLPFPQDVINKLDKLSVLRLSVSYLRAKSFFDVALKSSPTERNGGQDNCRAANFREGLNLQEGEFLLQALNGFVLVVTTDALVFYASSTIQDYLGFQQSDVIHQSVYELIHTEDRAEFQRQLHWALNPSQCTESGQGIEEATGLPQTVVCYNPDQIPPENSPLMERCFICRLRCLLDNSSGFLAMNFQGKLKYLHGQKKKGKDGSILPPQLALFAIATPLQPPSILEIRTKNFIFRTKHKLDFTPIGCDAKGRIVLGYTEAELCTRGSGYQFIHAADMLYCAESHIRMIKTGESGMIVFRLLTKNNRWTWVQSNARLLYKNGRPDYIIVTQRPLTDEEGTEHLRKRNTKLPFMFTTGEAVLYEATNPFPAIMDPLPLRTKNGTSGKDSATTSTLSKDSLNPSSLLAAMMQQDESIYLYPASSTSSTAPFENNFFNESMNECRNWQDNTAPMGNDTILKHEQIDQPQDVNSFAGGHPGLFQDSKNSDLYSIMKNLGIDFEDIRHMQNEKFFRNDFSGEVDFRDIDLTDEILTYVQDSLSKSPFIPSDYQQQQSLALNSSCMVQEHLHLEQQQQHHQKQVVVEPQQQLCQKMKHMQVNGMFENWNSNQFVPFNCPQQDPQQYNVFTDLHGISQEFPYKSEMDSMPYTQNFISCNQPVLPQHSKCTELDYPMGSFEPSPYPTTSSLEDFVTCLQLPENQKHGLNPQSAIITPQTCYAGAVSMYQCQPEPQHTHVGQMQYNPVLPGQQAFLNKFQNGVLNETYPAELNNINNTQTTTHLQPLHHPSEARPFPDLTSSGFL

[2] = Luminescence Cell-Based Dose Confirmation HTS to Identify Activators of 5'UTR Stem-Loop Driven Alpha-Synuclein mRNA Translation in H4 Neuroglioblastoma Cells. [Related pubchem assays: 1829 (Project Summary), 1814 (Primary HTS)]; type: functional
[3] = Luminescence Cell-Based Dose Response HTS to Identify Activators of Luciferase Translation or Activity in H4 […] Cells. [Related pubchem assays: 1829 (Project Summary), 1814 (Primary HTS)]; type: functional
[4] = system: H4; assay: Luminescence Cell-Based Dose Response HTS to Identify Activators of 5'UTR Stem-Loop Driven Prion Protein mRNA Translation in H4 Neuroglioblastoma Cells. [Related pubchem assays: 1829 (Project Summary), 1814 (Primary HTS)]; type: functional; conditions: Homo sapiens
[5] = biological target: T2, Estrogen receptor (Homo sapiens, UniProt P03372); assay: ERα coactivator recruitment enhancers – biochemical, TR-FRET, ERα LBD, dose response (AID 737)
T2 sequence (P03372 whole entry): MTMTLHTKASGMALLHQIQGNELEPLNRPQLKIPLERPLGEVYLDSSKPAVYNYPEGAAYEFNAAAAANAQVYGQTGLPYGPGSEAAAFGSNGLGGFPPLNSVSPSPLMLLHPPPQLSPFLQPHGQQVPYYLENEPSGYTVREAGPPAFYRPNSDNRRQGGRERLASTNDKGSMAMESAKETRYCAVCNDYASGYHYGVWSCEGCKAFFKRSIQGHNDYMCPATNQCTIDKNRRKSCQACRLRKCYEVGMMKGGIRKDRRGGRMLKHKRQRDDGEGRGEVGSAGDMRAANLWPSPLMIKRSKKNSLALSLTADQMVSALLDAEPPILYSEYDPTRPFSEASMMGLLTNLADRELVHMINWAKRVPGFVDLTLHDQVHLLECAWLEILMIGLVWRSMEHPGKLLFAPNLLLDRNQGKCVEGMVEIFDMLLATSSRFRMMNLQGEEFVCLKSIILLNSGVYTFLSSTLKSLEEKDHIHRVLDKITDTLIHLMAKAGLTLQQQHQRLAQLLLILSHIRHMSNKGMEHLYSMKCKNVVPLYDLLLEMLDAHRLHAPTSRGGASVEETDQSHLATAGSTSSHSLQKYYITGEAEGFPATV

[6] = biological target: DNA dC->dU-editing enzyme APOBEC-3A (Homo sapiens, UniProt P31941); assay: Dose Response confirmation of small molecule APOBEC3A DNA Deaminase Inhibitors via a fluorescence-based single-stranded DNA deaminase assay. [Related pubchem assays (depositor defined):AID493011, AID493024]; type: functional
Sequence of DNA dC->dU-editing enzyme APOBEC-3A (P31941 whole entry): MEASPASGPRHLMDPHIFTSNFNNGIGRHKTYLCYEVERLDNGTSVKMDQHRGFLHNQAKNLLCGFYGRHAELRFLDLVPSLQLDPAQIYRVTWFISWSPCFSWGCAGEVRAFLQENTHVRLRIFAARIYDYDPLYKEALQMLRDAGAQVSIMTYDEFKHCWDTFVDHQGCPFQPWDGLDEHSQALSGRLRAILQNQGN

[7] = biological target: DNA dC->dU-editing enzyme APOBEC-3G (Homo sapiens, UniProt Q9HC16); type: functional;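 note: Dose-response counterscreen measuring inhibition of APOBEC3G DNA deaminase activity, run while confirming APOBEC3A inhibitors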
Sequence of DNA dC->dU-editing enzyme APOBEC-3G (Q9HC16 whole entry): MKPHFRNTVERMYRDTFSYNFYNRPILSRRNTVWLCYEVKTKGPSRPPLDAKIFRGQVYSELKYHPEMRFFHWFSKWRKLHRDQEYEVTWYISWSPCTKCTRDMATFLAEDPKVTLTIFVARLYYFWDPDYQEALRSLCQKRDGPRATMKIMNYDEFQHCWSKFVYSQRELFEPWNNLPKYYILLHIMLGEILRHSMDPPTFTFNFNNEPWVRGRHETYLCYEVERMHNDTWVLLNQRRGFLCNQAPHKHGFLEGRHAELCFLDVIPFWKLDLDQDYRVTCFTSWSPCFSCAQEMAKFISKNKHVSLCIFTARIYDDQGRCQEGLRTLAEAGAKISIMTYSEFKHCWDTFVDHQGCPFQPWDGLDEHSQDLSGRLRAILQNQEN

[8] = biological target: Photoreceptor-specific nuclear receptor (Homo sapiens, UniProt Q9Y5X4); type: functional;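 note: potency for compounds that break the NR2E3 corepressor complex and count as activators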
Sequence of Photoreceptor-specific nuclear receptor (Q9Y5X4 whole entry): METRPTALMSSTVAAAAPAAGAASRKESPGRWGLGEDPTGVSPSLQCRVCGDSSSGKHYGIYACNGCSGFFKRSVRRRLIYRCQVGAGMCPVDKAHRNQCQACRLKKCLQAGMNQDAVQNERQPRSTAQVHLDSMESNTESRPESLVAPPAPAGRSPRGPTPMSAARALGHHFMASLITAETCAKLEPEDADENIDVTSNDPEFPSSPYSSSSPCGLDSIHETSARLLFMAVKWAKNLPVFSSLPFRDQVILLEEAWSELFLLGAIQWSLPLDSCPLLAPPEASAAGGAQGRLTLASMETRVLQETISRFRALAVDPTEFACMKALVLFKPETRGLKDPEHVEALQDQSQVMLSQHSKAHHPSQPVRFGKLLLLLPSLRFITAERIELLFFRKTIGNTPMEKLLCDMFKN

[9] = biological target: Peroxisome proliferator-activated receptor gamma/Nuclear receptor corepressor 2 (Homo sapiens, UniProt P37231+Q9Y618); type: functional
Sequence of Peroxisome proliferator-activated receptor gamma/Nuclear receptor corepressor 2 (P37231 whole entry): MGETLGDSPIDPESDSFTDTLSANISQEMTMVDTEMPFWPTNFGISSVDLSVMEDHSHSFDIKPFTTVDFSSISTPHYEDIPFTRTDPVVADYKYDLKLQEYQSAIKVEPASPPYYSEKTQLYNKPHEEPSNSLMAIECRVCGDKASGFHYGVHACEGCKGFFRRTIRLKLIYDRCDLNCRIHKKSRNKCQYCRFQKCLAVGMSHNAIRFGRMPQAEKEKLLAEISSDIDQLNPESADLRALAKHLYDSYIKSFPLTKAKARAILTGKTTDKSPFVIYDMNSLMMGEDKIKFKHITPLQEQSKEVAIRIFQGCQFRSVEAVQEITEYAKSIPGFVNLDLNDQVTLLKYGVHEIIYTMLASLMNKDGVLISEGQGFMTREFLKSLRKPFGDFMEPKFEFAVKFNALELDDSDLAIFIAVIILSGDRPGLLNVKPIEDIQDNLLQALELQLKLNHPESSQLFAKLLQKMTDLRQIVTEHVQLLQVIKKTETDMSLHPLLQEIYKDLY
Sequence of Peroxisome proliferator-activated receptor gamma/Nuclear receptor corepressor 2 (Q9Y618 whole entry): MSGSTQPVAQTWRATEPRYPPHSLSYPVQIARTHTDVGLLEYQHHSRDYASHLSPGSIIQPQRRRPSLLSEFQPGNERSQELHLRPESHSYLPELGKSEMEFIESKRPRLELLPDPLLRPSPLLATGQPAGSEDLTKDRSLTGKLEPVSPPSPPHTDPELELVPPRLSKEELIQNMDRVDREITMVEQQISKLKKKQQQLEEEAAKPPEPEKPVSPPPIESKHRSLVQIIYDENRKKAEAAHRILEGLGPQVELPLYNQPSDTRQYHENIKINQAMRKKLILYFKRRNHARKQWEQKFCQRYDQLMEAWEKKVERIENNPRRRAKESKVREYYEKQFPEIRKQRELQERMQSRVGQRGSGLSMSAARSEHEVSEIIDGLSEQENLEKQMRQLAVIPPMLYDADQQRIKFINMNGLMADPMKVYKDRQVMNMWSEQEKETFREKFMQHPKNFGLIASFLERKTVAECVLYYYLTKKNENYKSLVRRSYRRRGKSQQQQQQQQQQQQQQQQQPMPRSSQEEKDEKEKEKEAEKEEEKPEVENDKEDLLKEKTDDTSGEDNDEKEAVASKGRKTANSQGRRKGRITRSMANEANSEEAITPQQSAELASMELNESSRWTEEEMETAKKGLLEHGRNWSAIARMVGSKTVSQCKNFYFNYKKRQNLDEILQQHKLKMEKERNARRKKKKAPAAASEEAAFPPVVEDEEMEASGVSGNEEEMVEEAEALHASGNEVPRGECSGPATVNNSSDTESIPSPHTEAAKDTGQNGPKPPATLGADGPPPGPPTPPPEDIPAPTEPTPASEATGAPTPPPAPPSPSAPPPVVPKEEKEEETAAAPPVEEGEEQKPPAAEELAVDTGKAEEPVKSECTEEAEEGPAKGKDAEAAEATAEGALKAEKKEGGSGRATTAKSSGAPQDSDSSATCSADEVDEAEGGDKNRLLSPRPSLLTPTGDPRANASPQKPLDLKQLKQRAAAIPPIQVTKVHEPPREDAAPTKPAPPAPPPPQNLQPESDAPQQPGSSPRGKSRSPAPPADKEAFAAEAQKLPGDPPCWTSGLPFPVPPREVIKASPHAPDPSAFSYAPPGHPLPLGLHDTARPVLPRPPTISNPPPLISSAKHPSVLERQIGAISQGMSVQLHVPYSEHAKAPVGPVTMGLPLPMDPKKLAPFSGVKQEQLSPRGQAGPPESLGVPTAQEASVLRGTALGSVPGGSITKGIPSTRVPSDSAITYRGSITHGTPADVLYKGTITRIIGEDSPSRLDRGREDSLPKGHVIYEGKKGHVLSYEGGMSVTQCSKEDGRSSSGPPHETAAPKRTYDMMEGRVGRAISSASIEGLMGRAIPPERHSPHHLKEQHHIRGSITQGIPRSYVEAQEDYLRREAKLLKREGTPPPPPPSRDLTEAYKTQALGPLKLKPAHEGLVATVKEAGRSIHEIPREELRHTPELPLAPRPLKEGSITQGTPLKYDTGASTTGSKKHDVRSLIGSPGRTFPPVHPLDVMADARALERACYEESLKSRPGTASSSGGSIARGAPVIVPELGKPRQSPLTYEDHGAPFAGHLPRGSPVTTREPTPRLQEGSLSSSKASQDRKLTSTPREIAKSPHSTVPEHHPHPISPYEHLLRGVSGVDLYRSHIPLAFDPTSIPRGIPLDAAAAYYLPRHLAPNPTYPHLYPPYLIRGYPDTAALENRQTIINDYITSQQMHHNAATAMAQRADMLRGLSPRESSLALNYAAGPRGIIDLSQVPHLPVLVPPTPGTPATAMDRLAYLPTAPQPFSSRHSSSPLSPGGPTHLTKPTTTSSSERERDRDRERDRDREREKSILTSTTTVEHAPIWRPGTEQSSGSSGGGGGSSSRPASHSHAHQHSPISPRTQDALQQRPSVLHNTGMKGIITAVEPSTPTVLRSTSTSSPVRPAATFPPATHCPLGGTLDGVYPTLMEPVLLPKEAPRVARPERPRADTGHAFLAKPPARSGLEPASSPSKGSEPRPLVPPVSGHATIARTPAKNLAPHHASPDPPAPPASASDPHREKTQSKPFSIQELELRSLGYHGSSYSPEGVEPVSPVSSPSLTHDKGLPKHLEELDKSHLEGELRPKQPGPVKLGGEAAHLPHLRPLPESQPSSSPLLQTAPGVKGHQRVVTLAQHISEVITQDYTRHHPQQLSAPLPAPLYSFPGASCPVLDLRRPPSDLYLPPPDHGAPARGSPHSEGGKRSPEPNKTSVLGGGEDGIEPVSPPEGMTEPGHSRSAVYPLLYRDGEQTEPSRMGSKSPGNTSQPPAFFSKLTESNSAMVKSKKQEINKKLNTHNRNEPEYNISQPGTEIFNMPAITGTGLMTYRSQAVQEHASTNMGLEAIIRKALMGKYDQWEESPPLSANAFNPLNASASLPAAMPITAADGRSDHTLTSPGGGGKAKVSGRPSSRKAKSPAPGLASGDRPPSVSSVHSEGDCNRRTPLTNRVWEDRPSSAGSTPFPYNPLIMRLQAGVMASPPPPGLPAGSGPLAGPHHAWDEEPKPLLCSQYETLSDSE

[10] = biological target: E3 ubiquitin-protein ligase Mdm2 (Homo sapiens, UniProt Q00987); assay: MDM2-luc reporter signal enhancers, multi-concentration potency testing, MDM2 ubiquitin-protein ligase inhibitor program, whole-cell format, luminescence detection, 384-well microplate (AID 1394); type: functional;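 note: MDM2 E3 inhibitors raise luminescence so EC50 is for signal enhancement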
Sequence of E3 ubiquitin-protein ligase Mdm2 (Q00987 whole entry): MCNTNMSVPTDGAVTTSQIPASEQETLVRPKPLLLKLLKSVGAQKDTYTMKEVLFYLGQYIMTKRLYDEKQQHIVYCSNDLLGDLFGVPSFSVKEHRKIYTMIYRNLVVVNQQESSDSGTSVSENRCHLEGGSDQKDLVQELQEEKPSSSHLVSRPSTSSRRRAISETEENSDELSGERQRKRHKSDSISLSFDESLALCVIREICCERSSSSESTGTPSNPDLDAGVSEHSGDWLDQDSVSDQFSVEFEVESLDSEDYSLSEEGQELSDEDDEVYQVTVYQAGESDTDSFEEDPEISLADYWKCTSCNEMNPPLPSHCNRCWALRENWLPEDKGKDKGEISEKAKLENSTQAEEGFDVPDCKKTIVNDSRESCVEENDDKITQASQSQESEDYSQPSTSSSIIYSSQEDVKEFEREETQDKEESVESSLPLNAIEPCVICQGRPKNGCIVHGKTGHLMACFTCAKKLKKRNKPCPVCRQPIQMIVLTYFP

[11] = antiviral protection against BTV-induced cell death – arbovirus, BSR cells, confirmation (AID 1250); type: functional;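 note: protection from viral cytopathic effect measured as cell viability by ATP luminescence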
[12] = biological target: Cytochrome P450 3A4 (Homo sapiens, UniProt P08684);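 note: CYP3A4 tested as one member of a cytochrome P450 panel screen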
Sequence of Cytochrome P450 3A4 (P08684 whole entry): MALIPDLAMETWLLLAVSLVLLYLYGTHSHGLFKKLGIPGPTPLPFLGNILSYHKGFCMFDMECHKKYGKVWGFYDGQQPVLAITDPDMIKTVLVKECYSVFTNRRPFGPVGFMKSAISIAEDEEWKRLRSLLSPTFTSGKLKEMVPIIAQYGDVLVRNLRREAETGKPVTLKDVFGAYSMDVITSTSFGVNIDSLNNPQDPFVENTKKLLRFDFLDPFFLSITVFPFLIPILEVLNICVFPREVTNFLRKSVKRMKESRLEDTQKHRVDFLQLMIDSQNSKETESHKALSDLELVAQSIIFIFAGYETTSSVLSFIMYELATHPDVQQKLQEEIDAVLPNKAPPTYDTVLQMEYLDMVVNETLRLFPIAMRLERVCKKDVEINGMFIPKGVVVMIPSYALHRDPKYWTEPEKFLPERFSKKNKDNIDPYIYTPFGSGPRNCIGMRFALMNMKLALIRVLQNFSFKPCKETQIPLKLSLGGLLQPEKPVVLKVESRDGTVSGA

With `Cc1nnc(N2C(=O)c3cccc4c([N+](=O)[O-])ccc(c34)C2=O)s1` the EC50 [1] was 0.733 µM (active).

In the case of `CCn1c(SCC(=O)Nc2cccc(F)c2)nnc1-c1cc2cc(Br)ccc2o1`, the EC50 [2] is reported as > 120 µM (not active), the EC50 [3] is reported as 10.8 µM (active) and the EC50 [4] is reported as > 120 µM (not active). For the same compound, the EC50 [5] was 11.1 µM (active), the IC50 [6] was 2.82 µM (active) and the IC50 [7] was 5.3 µM (active).

With `COCCCN1C(=O)C(O)=C(C(=O)c2ccc(C)o2)C1c1cccc(Br)c1` (stereo not drawn) the IC50 [8] was > 39.8 µM (not active) and the IC50 [9] was 11.1 µM (not active).

With `CCOC(=O)C1C(c2ccccc2)N(C)OC1(O)C(F)(F)F` (stereo not drawn) the EC50 [10] was 9.58 µM (not active).

With `C=CCSc1nc(O)c2sc3nc(C)cc(C)c3c2n1` the IC50 [11] was 25.4 µM (active) and the AC50 [12] was 11.2 µM (inconclusive).

In the case of `O=c1oc(-c2cccs2)nc2scc(-c3cccs3)c12`, the IC50 [11] is reported as 24.2 µM (active).
